This is an account of results in patent publication US10072011B2, “Substituted bridged urea analogs as sirtuin modulators” (GlaxoSmithKline Intellectual Property (No.2) Limited, priority 2014, dated 2018).

The test concerns the target T1, SIRT1 (Homo sapiens, UniProt Q96EB6).
T1 sequence (Q96EB6 1-747): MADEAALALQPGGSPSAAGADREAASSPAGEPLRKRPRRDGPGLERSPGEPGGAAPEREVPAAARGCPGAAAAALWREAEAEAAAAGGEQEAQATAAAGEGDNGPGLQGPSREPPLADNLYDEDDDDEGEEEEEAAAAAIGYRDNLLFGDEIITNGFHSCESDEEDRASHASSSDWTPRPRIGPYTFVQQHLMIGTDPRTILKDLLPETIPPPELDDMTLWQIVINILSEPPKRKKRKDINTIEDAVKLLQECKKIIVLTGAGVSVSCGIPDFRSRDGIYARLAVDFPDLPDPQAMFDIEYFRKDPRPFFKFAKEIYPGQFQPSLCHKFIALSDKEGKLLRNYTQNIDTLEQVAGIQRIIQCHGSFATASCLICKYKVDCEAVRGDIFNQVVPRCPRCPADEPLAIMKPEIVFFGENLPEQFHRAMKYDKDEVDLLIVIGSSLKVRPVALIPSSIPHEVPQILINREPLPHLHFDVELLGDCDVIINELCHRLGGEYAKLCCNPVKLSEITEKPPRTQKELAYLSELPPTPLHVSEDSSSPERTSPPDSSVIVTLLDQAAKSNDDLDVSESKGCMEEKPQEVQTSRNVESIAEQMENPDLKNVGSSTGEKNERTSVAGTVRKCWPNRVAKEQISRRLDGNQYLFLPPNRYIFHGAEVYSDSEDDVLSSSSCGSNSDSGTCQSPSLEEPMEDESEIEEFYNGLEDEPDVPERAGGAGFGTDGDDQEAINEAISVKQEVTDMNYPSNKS
Kind of test: Trp mass spectrometry assay of SIRT1 activation (Ac-R-H-K-K(Ac)-W-NH2 peptide). It is filed as biochemical. The conditions noted are these: Trp peptide 0.5 μM, 120 μM βNAD+, 10 nM SIRT1, 25 min at 25° C.; for Emax: 25 min, read-out: TRP MAX RESP (percent maximum fold activation). As for the experimental part:
The Trp mass spectrometry assay was conducted as follows. […] The SIRT1 protein was obtained by cloning the SirT1 gene into a T7-promoter containing vector, which was then expressed in BL21(DE3) bacterial cells and purified as described in further detail below. Test compound was added at varying concentrations to this reaction mixture and the resulting reactions were monitored. After the 25 minute incubation with SIRT1, 10 μL of 10% formic acid was added to stop the reaction. The resulting reactions were sealed and frozen for later mass spec analysis. The relative SIRT1 activity was then determined by measuring the amount of O-acetyl-ADP-ribose (OAADPR) formed (or, alternatively, the amount of deacetylated Trp peptide generated) by the NAD-dependent sirtuin deacetylation reaction in the presence of varying concentrations of the test compound versus control reactions lacking the test compound. The degree to which the test agent activated deacetylation by SIRT1 was expressed as EC1.5 (i.e., the concentration of compound required to increase SIRT1 activity by 50% over the control lacking test compound), and Percent Maximum Activation (i.e., the maximum activity relative to control (100%) obtained for the test compound).
This time point was the same as that used for test compounds and, within the linear range, the endpoint represents a change in velocity.
For the above assay, SIRT1 protein was expressed and purified as follows. The SirT1 gene was cloned into a T7-promoter containing vector and transformed into BL21(DE3). The protein was expressed by induction with 1 mM IPTG as an N-terminal His-tag fusion protein at 18° C. overnight and harvested at 30,000×g. Cells were lysed with lysozyme in lysis buffer (50 mM Tris-HCl, 2 mM Tris[2-carboxyethyl]phosphine (TCEP), 10 μM ZnCl2, 200 mM NaCl) and further treated with sonication for 10 min for complete lysis. The protein was purified over a Ni-NTA column (Amersham) and fractions containing pure protein were pooled, concentrated and run over a sizing column (Sephadex S200 26/60 global). The peak containing soluble protein was collected and run on an Ion-exchange column (MonoQ). Gradient elution (200 mM-500 mM NaCl) yielded pure protein. This protein was concentrated and dialyzed against dialysis buffer (20 mM Tris-HCl, 2 mM TCEP) overnight. The protein was aliquoted and frozen at −80° C. until further use.
“NT” means not tested; “ND” means not determinable.

Take `O=C(N[C@H]1C[C@H](O)C1)c1ccc2c(n1)N(C(=O)Nc1ccccn1)[C@H]1CCN2C1` (racemic) [Example 210, (4S)—N7-((1r,3S)-3-hydroxycyclobutyl)-N5-(pyridin-2-yl)-3,4-dihydro-1,4-methanopyrido[2,3-b][1,4]diazepine-5,7(2H)-dicarboxamide]: the “TRP Activity (EC1.5, concentration of test compound that results in 150% activation of SIRT1)” value is “B (EC1.5 1-25 μM)”. In addition, the Emax (relative to control (100%)) is above 150%.
As to `O=C(NC(CCO)C(F)(F)F)c1ccc2c(n1)N(C(=O)Nc1ccccn1)[C@H]1CCN2C1` (single isomer, unassigned) [Example 18], the “TRP Activity (EC1.5, concentration of test compound that results in 150% activation of SIRT1)” value was “A (EC1.5<1 μM)”. In addition, the Emax (relative to control (100%)) is above 150%.
Consider `O=C(NC1CC1(F)F)c1ccc2c(n1)N(C(=O)Nc1ccccn1)[C@H]1CCN2C1` (single isomer, unassigned) [Example 43], for which the “TRP Activity (EC1.5, concentration of test compound that results in 150% activation of SIRT1)” value is “A (EC1.5<1 μM)”. For the setting “relative to control (100%)”, the Emax was above 150%.
As for `O=C(NC1CC1(F)F)c1ccc2c(n1)N(C(=O)Nc1ccccn1)[C@H]1CCN2C1` (single isomer, unassigned) [Example 44], the “TRP Activity (EC1.5, concentration of test compound that results in 150% activation of SIRT1)” value was “A (EC1.5<1 μM)”.
For the compound `NC(CNC(=O)c1ccc2c(n1)N(C(=O)Nc1ccccn1)[C@H]1CCN2C1)C(F)(F)F` (single isomer, unassigned) [Example 49], the “TRP Activity (EC1.5, concentration of test compound that results in 150% activation of SIRT1)” value was “B (EC1.5 1-25 μM)”. For the same compound, the Emax (relative to control (100%)) was above 150%.
For the compound `NC[C@H](NC(=O)c1ccc2c(n1)N(C(=O)Nc1ccccn1)[C@H]1CCN2C1)C(F)(F)F` (single isomer, unassigned) [Example 50], the “TRP Activity (EC1.5, concentration of test compound that results in 150% activation of SIRT1)” value is listed as “A (EC1.5<1 μM)”. Further, the Emax (relative to control (100%)) is above 150%.
For `O=C(NC(CO)C1CC1)c1ccc2c(n1)N(C(=O)Nc1ccccn1)[C@H]1CCN2C1` (single isomer, unassigned) [Example 58], in that order: “A (EC1.5<1 μM)” and above 150%.
As to `COCC(NC(=O)c1ccc2c(n1)N(C(=O)Nc1ccccn1)[C@H]1CCN2C1)C1CC1` (single isomer, unassigned) [Example 59], the “TRP Activity (EC1.5, concentration of test compound that results in 150% activation of SIRT1)” value is “A (EC1.5<1 μM)”. The Emax (relative to control (100%)) is above 150%.
As to `COCC(NC(=O)c1ccc2c(n1)N(C(=O)Nc1ccccn1)[C@H]1CCN2C1)C1CC1` (single isomer, unassigned) [Example 60], the “TRP Activity (EC1.5, concentration of test compound that results in 150% activation of SIRT1)” value was “A (EC1.5<1 μM)”.
Consider `Cc1ccc2c(NC(=O)N3c4nc(C(=O)NC5CC5(F)F)ccc4N4CC[C@H]3C4)n[nH]c2n1` (single isomer, unassigned) [Example 65], for which the “TRP Activity (EC1.5, concentration of test compound that results in 150% activation of SIRT1)” value is “A (EC1.5<1 μM)”. The Emax (relative to control (100%)) was above 150%.
For `O=C(N[C@H](CO)C(F)(F)F)c1ccc2c(n1)N(C(=O)Nc1cc(OC[C@H](O)CO)ccn1)[C@H]1CCN2C1` (single isomer, unassigned) [Example 92] the same measures were “A (EC1.5<1 μM)” and above 150%.
For `CC(NC(=O)c1ccc2c(n1)N(C(=O)Nc1ccccn1)[C@H]1CCN2C1)C1CC1` (single isomer, unassigned) [Example 100], the “TRP Activity (EC1.5, concentration of test compound that results in 150% activation of SIRT1)” value is reported as “A (EC1.5<1 μM)”. Further, the Emax (relative to control (100%)) was above 150%.
Regarding `CC(NC(=O)c1ccc2c(n1)N(C(=O)Nc1ccccn1)[C@H]1CCN2C1)C1CC1` (single isomer, unassigned) [Example 101], the “TRP Activity (EC1.5, concentration of test compound that results in 150% activation of SIRT1)” value is listed as “A (EC1.5<1 μM)”.
Regarding `CC(C#N)NC(=O)c1ccc2c(n1)N(C(=O)Nc1ccccn1)[C@H]1CCN2C1` (single isomer, unassigned) [Example 102], the “TRP Activity (EC1.5, concentration of test compound that results in 150% activation of SIRT1)” value is given as “A (EC1.5<1 μM)”. For the same compound, the Emax (relative to control (100%)) was above 150%.
`CC(C#N)NC(=O)c1ccc2c(n1)N(C(=O)Nc1ccccn1)[C@H]1CCN2C1` (single isomer, unassigned) [Example 103]: the “TRP Activity (EC1.5, concentration of test compound that results in 150% activation of SIRT1)” value was “A (EC1.5<1 μM)”.
For the compound `O=C(N[C@H](CO)C(F)(F)F)c1ccc2c(n1)N(C(=O)Nc1cnccn1)[C@H]1CCN2C1` (single isomer, unassigned) [Example 119], the “TRP Activity (EC1.5, concentration of test compound that results in 150% activation of SIRT1)” value was “A (EC1.5<1 μM)”. The Emax (relative to control (100%)) is above 150%.
For `Cc1ncc(-c2ccnc(NC(=O)N3c4nc(C(=O)N[C@H](CO)C(F)(F)F)ccc4N4CC[C@H]3C4)c2)o1` (single isomer, unassigned) [Example 125], in that order: “A (EC1.5<1 μM)” and above 150%.
For `NC(CNC(=O)c1ccc2c(n1)N(C(=O)Nc1cc(OC[C@H](O)CO)ccn1)[C@H]1CCN2C1)C(F)(F)F` (single isomer, unassigned) [Example 196] the same measures were “B (EC1.5 1-25 μM)” and above 150%.
For `Cc1ccc2c(NC(=O)N3c4nc(C(=O)NCC(N)C(F)(F)F)ccc4N4CC[C@H]3C4)n[nH]c2n1` (single isomer, unassigned) [Example 197] the same measures were “B (EC1.5 1-25 μM)” and above 150%.
`NC(CNC(=O)c1ccc2c(n1)N(C(=O)Nc1ncccn1)[C@H]1CCN2C1)C(F)(F)F` (single isomer, unassigned) [Example 198]: the “TRP Activity (EC1.5, concentration of test compound that results in 150% activation of SIRT1)” value is given as “B (EC1.5 1-25 μM)”. In addition, the Emax (relative to control (100%)) is above 150%.
Regarding `COCC(O)CNC(=O)c1ccc2c(n1)N(C(=O)Nc1ccccn1)[C@H]1CCN2C1` (single isomer, unassigned) [Example 214], the “TRP Activity (EC1.5, concentration of test compound that results in 150% activation of SIRT1)” value is reported as “B (EC1.5 1-25 μM)”. The Emax (relative to control (100%)) is above 150%.
As to `Cc1ccc2c(NC(=O)N3c4nc(C(=O)NC5CC5(F)F)ccc4N4CC[C@H]3C4)n[nH]c2n1` (single isomer, unassigned) [Example 221], the “TRP Activity (EC1.5, concentration of test compound that results in 150% activation of SIRT1)” value is “B (EC1.5 1-25 μM)”. The “TRP MAX RESP (percent maximum fold activation)” value (relative to control (100%)) was “A (Fold activation≥150%)”.
For `NCC(NC(=O)c1ccc2c(n1)N(C(=O)Nc1ccccn1)[C@H]1CCN2C1)C(F)(F)F` (single isomer, unassigned) [Example 223], the “TRP Activity (EC1.5, concentration of test compound that results in 150% activation of SIRT1)” value is listed as “B (EC1.5 1-25 μM)”. In addition, where the note is “relative to control (100%)”, the Emax was above 150%.
With `Cc1ccc2c(NC(=O)N3c4nc(C(=O)NC[C@@H](N)C(F)(F)F)ccc4N4CC[C@H]3C4)n[nH]c2n1` (single isomer, unassigned) [Example 233], the Emax (relative to control (100%)) was above 150%.
Take `N[C@H](CNC(=O)c1ccc2c(n1)N(C(=O)Nc1ncccn1)[C@H]1CCN2C1)C(F)(F)F` (single isomer, unassigned) [Example 235]: the “TRP Activity (EC1.5, concentration of test compound that results in 150% activation of SIRT1)” value is “A (EC1.5<1 μM)”. The Emax (relative to control (100%)) is above 150%.
For `O=C(NC1CC1(F)F)c1ccc2c(n1)N(C(=O)Nc1ccc(F)cn1)[C@H]1CCN2C1` (single isomer, unassigned) [Example 242] the same measures were “A (EC1.5<1 μM)” and above 150%.
